The test deals with MV-4-11 cells. In words: Gene expression microarray analysis (Affymetrix PrimeView) and GSEA. The note with it: ProbeSet 11755425_a_at; LIST B. Also on record: RFU PODN (11730768_x_at) / Fold change /veh PODN (11730768_x_at) / RFU LINC00158 (11744669_a_at) / Fold change /veh LINC00158 (11744669_a_at) / RFU DUSP10 (11751237_a_at) / Fold change /veh DUSP10 (11751237_a_at) / RFU ID3 (11757404_x_at) / Fold change /veh ID3 (11757404_x_at) / RFU PLEKHG5 (11737974_s_at) / Fold change /veh PLEKHG5 (11737974_s_at) / RFU LRRC4B (11730491_at) / Fold change /veh LRRC4B (11730491_at) / RFU GIMAP4 (11747438_a_at) / Fold change /veh GIMAP4 (11747438_a_at) / RFU KRT8 (11758183_x_at) / Fold change /veh KRT8 (11758183_x_at) / RFU CNN1 (11734310_a_at) / Fold change /veh CNN1 (11734310_a_at) / RFU VPS37D (11726825_at) / Fold change /veh VPS37D (11726825_at) / RFU C10orf10 (11716522_x_at) / Fold change /veh C10orf10 (11716522_x_at) / RFU KIR2DL2 /// KIR2DL4 /// KIR2DL5A /// KIR2DL5B /// KIR2DS1 /// KIR2DS2 /// KIR2DS3 /// KIR2DS4 /// KIR3DL3 /// KIR3DL3 /// KIR3DS1 (11738374_at) / Fold change /veh KIR2DL2 /// KIR2DL4 /// KIR2DL5A /// KIR2DL5B /// KIR2DS1 /// KIR2DS2 /// KIR2DS3 /// KIR2DS4 /// KIR3DL3 /// KIR3DL3 /// KIR3DS1 (11738374_at) / RFU C1QL1 (11718748_at) / Fold change /veh C1QL1 (11718748_at) / RFU TMPRSS4 (11747572_a_at) / Fold change /veh TMPRSS4 (11747572_a_at) / RFU HAMP (11756126_x_at) / Fold change /veh HAMP (11756126_x_at) / RFU RNFT2 (11725882_a_at) / Fold change /veh RNFT2 (11725882_a_at) / RFU NR4A2 (11747474_a_at) / Fold change /veh NR4A2 (11747474_a_at) / RFU ABCC12 (11746883_a_at) / Fold change /veh ABCC12 (11746883_a_at) / RFU TMEM136 (11760407_x_at) / Fold change /veh TMEM136 (11760407_x_at) / RFU CLDN22 /// WWC2 (11732394_at) / Fold change /veh CLDN22 /// WWC2 (11732394_at) / RFU HLA-DPB1 (11760878_x_at) / Fold change /veh HLA-DPB1 (11760878_x_at) / RFU SPINT1 (11716480_a_at) / Fold change /veh SPINT1 (11716480_a_at) / RFU GAP43 (11754022_s_at) / Fold change /veh GAP43 (11754022_s_at) / RFU A4GNT (11735810_at) / Fold change /veh A4GNT (11735810_at) / RFU PRB3 (11715151_x_at) / Fold change /veh PRB3 (11715151_x_at) / RFU TUBB4B (11761932_at) / Fold change /veh TUBB4B (11761932_at) / RFU CAPN14 (11732068_a_at) / Fold change /veh CAPN14 (11732068_a_at) / RFU TMCC2 (11721928_a_at) / Fold change /veh TMCC2 (11721928_a_at) / RFU IRGQ (11745062_a_at) / Fold change /veh IRGQ (11745062_a_at) / RFU FAM174B (11720279_a_at) / Fold change /veh FAM174B (11720279_a_at) / RFU TMPRSS4 (11748680_a_at) / Fold change /veh TMPRSS4 (11748680_a_at) / RFU FAM212B (11763350_a_at) / Fold change /veh FAM212B (11763350_a_at) / RFU PLEKHG5 (11743358_a_at) / Fold change /veh PLEKHG5 (11743358_a_at) / RFU ZSCAN30 (11745921_a_at) / Fold change /veh ZSCAN30 (11745921_a_at) / RFU CMKLR1 (11741424_a_at) / Fold change /veh CMKLR1 (11741424_a_at) / RFU LOC101060620 /// MAPK8IP1 (11723275_at) / Fold change /veh LOC101060620 /// MAPK8IP1 (11723275_at) / RFU SPTSSB (11747773_x_at) / Fold change /veh SPTSSB (11747773_x_at) / RFU PRSS12 (11739890_at) / Fold change /veh PRSS12 (11739890_at) / RFU BIN1 (11741810_x_at) / Fold change /veh BIN1 (11741810_x_at) / RFU WNT11 (11732464_a_at) / Fold change /veh WNT11 (11732464_a_at) / RFU C10orf10 (11716521_a_at) / Fold change /veh C10orf10 (11716521_a_at) / RFU C5orf56 (11738089_at) / Fold change /veh C5orf56 (11738089_at) / RFU CYB561 (11721691_x_at) / Fold change /veh CYB561 (11721691_x_at) / RFU ANKRD19P (11752326_a_at) / Fold change /veh ANKRD19P (11752326_a_at) / RFU OR2T12 /// OR2T33 /// OR2T8 (11738714_s_at) / Fold change /veh OR2T12 /// OR2T33 /// OR2T8 (11738714_s_at) / RFU VCAN (11748164_a_at) / Fold change /veh VCAN (11748164_a_at) / RFU JSRP1 (11732532_at) / Fold change /veh JSRP1 (11732532_at) / RFU KRTAP10-11 (11738290_x_at) / Fold change /veh KRTAP10-11 (11738290_x_at) / RFU MYO3A (11730013_a_at) / Fold change /veh MYO3A (11730013_a_at) / RFU EBF3 (11725865_a_at) / Fold change /veh EBF3 (11725865_a_at) / RFU CAMK2N1 (11719241_x_at) / Fold change /veh CAMK2N1 (11719241_x_at) / RFU C5orf56 (11738088_a_at) / Fold change /veh C5orf56 (11738088_a_at) / RFU OLFML3 (11715873_a_at) / Fold change /veh OLFML3 (11715873_a_at) / RFU LOC100653217 /// NTM (11731650_a_at) / Fold change /veh LOC100653217 /// NTM (11731650_a_at) / RFU MAPK11 (11762145_a_at) / Fold change /veh MAPK11 (11762145_a_at) / RFU FIZ1 (11724087_x_at) / Fold change /veh FIZ1 (11724087_x_at) / RFU OASL (11726364_x_at) / Fold change /veh OASL (11726364_x_at) / RFU SOX15 (11748057_x_at) / Fold change /veh SOX15 (11748057_x_at) / RFU CD79A (11719716_a_at) / Fold change /veh CD79A (11719716_a_at) / RFU HIST1H1D (11736915_at) / Fold change /veh HIST1H1D (11736915_at) / RFU CASKIN2 (11723855_a_at) / Fold change /veh CASKIN2 (11723855_a_at) / RFU LOC730098 (11760151_x_at) / Fold change /veh LOC730098 (11760151_x_at) / RFU OR4N2 (11742367_at) / Fold change /veh OR4N2 (11742367_at) / RFU PRRT2 (11749266_a_at) / Fold change /veh PRRT2 (11749266_a_at) / RFU SNX32 (11753110_a_at) / Fold change /veh SNX32 (11753110_a_at) / RFU CDHR5 (11726645_a_at) / Fold change /veh CDHR5 (11726645_a_at) / RFU RCAN1 (11760418_a_at) / Fold change /veh RCAN1 (11760418_a_at) / RFU FAM167A (11723789_a_at) / Fold change /veh FAM167A (11723789_a_at) / RFU FAM26E (11764081_at) / Fold change /veh FAM26E (11764081_at) / RFU ISYNA1 (11749810_s_at) / Fold change /veh ISYNA1 (11749810_s_at) / RFU ACY1 (11761880_at) / Fold change /veh ACY1 (11761880_at) / RFU 11764098_at / Fold change /veh 11764098_at / RFU SAMD14 (11745864_x_at) / Fold change /veh SAMD14 (11745864_x_at) / RFU NPB (11741838_a_at) / Fold change /veh NPB (11741838_a_at) / RFU TMPRSS6 (11731388_a_at) / Fold change /veh TMPRSS6 (11731388_a_at) / RFU KRTAP10-2 (11738614_at) / Fold change /veh KRTAP10-2 (11738614_at) / RFU ARHGAP8 /// PRR5-ARHGAP8 (11727945_x_at) / Fold change /veh ARHGAP8 /// PRR5-ARHGAP8 (11727945_x_at) / RFU KRTAP5-7 /// NADSYN1 (11734609_at) / Fold change /veh KRTAP5-7 /// NADSYN1 (11734609_at) / RFU RASL12 (11751679_a_at) / Fold change /veh RASL12 (11751679_a_at) / RFU CDKN2B (11736163_a_at) / Fold change /veh CDKN2B (11736163_a_at) / RFU PRF1 (11729649_at) / Fold change /veh PRF1 (11729649_at) / RFU, ZNF638 /// ZNF638-IT1 / Fold change vs veh, ZNF638 /// ZNF638-IT1 / RFU, PANK3 / Fold change vs veh, PANK3 / RFU, SH3YL1 / Fold change vs veh, SH3YL1 / RFU, ZEB2 / Fold change vs veh, ZEB2 / RFU, NRIP1 / Fold change vs veh, NRIP1 / RFU, PTTG1IP / Fold change vs veh, PTTG1IP / RFU, CAPN2 / Fold change vs veh, CAPN2 / RFU, MED14 / Fold change vs veh, MED14 / RFU, SNORA58 / Fold change vs veh, SNORA58 / RFU, C1orf63 / Fold change vs veh, C1orf63 / RFU, LRRFIP1 / Fold change vs veh, LRRFIP1 / RFU, NDUFAF7 / Fold change vs veh, NDUFAF7 / RFU, SLC12A2 / Fold change vs veh, SLC12A2 / RFU, IBTK / Fold change vs veh, IBTK / RFU, ESF1 / Fold change vs veh, ESF1 / Fold change vs veh, TMEM50B / RFU, TAOK1 / Fold change vs veh, TAOK1 / RFU, ACBD3 / Fold change vs veh, ACBD3 / RFU, TMA16 / Fold change vs veh, TMA16 / RFU, RWDD3 / Fold change vs veh, RWDD3 / RFU, BCAT1 / Fold change vs veh, BCAT1 / RFU, EDEM3 / Fold change vs veh, EDEM3 / RFU, TMEM33 / Fold change vs veh, TMEM33 / RFU, WDR75 / Fold change vs veh, WDR75 / RFU, AHCTF1 / Fold change vs veh, AHCTF1 / RFU, TFRC / Fold change vs veh, TFRC / RFU, ZDHHC17 / Fold change vs veh, ZDHHC17 / RFU, NOM1 / Fold change vs veh, NOM1 / RFU, ARL8B / Fold change vs veh, ARL8B / RFU, ZBTB11 / Fold change vs veh, ZBTB11 / RFU, TAMM41 / Fold change vs veh, TAMM41 / RFU, KIAA1704 /// LOC100996395 / Fold change vs veh, KIAA1704 /// LOC100996395 / RFU, ING1 / Fold change vs veh, ING1 / RFU, TRMT61B / Fold change vs veh, TRMT61B / RFU, FUBP3 / Fold change vs veh, FUBP3 / RFU, TP53 / Fold change vs veh, TP53 / RFU, TNKS2 / Fold change vs veh, TNKS2 / RFU, ZFP14 / Fold change vs veh, ZFP14 / RFU, ACTR2 / Fold change vs veh, ACTR2 / RFU, PPP3R1 / Fold change vs veh, PPP3R1 / RFU, PIK3R1 / Fold change vs veh, PIK3R1 / RFU, HNRNPA1 / Fold change vs veh, HNRNPA1 / RFU, RNF170 / Fold change vs veh, RNF170 / RFU, ZNF28 / Fold change vs veh, ZNF28 / RFU, RNGTT / Fold change vs veh, RNGTT / RFU, OGT / Fold change vs veh, OGT / RFU, BRD1 / Fold change vs veh, BRD1 / RFU, MARS / Fold change vs veh, MARS / RFU, ZNF655 / Fold change vs veh, ZNF655 / RFU, FAHD1 / Fold change vs veh, FAHD1 / RFU, BDP1 / Fold change vs veh, BDP1 / RFU, LRRCC1 / Fold change vs veh, LRRCC1 / RFU, ARID1A / Fold change vs veh, ARID1A / RFU, ZNF146 / Fold change vs veh, ZNF146 / RFU, ZNF330 / Fold change vs veh, ZNF330 / RFU, GPN3 / Fold change vs veh, GPN3 / RFU, C9orf123 / Fold change vs veh, C9orf123 / RFU, N4BP2L2 / Fold change vs veh, N4BP2L2 / RFU, ARFIP1 / Fold change vs veh, ARFIP1 / RFU, FAM179B / Fold change vs veh, FAM179B / RFU, BCL10 / Fold change vs veh, BCL10 / RFU, UHRF1BP1L / Fold change vs veh, UHRF1BP1L / RFU, BET1 / Fold change vs veh, BET1 / RFU, CNOT2 / Fold change vs veh, CNOT2 / RFU, ZNF268 / Fold change vs veh, ZNF268 / Fold change vs veh, ZNF507 / RFU, DGCR2 / Fold change vs veh, DGCR2 / RFU, WDSUB1 / Fold change vs veh, WDSUB1 / Fold change vs veh, HSP90B1 /// MIR3652 / RFU, ADSS / Fold change vs veh, ADSS / RFU, GK / Fold change vs veh, GK / RFU, ZNF148 / Fold change vs veh, ZNF148 / RFU, TAF9 / Fold change vs veh, TAF9 / RFU, SLC1A5 / Fold change vs veh, SLC1A5 / RFU, SLMO2 / Fold change vs veh, SLMO2 / RFU, ABCC4 / Fold change vs veh, ABCC4 / RFU, LOC101060439 /// RAP1B / Fold change vs veh, LOC101060439 /// RAP1B / RFU, RFX7 / Fold change vs veh, RFX7 / RFU, GTPBP10 / Fold change vs veh, GTPBP10 / RFU, CNEP1R1 / Fold change vs veh, CNEP1R1 / RFU, BIVM-ERCC5 /// ERCC5 / Fold change vs veh, BIVM-ERCC5 /// ERCC5 / RFU, ILF3 / Fold change vs veh, ILF3 / RFU 11762660_at / Fold change /veh 11762660_at / RFU VCAN (11757783_s_at) / Fold change /veh VCAN (11757783_s_at) / RFU DDX43 (11728927_at) / Fold change /veh DDX43 (11728927_at) / RFU KRT8 (11758188_x_at) / Fold change /veh KRT8 (11758188_x_at) / RFU NKD1 (11759106_at) / Fold change /veh NKD1 (11759106_at) / RFU SRD5A1 (11742802_a_at) / Fold change /veh SRD5A1 (11742802_a_at) / RFU TPSAB1 /// TPSB2 (11721975_s_at) / Fold change /veh TPSAB1 /// TPSB2 (11721975_s_at) / RFU GSTM3 (11746129_a_at) / Fold change /veh GSTM3 (11746129_a_at) / RFU IL23R (11737362_x_at) / Fold change /veh IL23R (11737362_x_at) / RFU TMEM51 (11727254_a_at) / Fold change /veh TMEM51 (11727254_a_at) / RFU PIWIL2 (11732686_x_at) / Fold change /veh PIWIL2 (11732686_x_at) / RFU ORM1 (11744905_x_at) / Fold change /veh ORM1 (11744905_x_at) / RFU CCDC152 (11743942_at) / Fold change /veh CCDC152 (11743942_at) / RFU ECM1 (11717891_a_at) / Fold change /veh ECM1 (11717891_a_at) / RFU IL23R (11748794_a_at) / Fold change /veh IL23R (11748794_a_at) / RFU TNFAIP8L3 (11732012_x_at) / Fold change /veh TNFAIP8L3 (11732012_x_at) / RFU MBOAT4 (11741988_at) / Fold change /veh MBOAT4 (11741988_at) / RFU 11764193_at / Fold change /veh 11764193_at / RFU TMEM53 (11763286_at) / Fold change /veh TMEM53 (11763286_at) / RFU MAGEB2 (11727129_at) / Fold change /veh MAGEB2 (11727129_at) / RFU TMEM200A (11744735_a_at) / Fold change /veh TMEM200A (11744735_a_at) / RFU CCDC152 (11751479_a_at) / Fold change /veh CCDC152 (11751479_a_at) / RFU FAM211A (11726209_a_at) / Fold change /veh FAM211A (11726209_a_at) / RFU RGS16 (11746705_a_at) / Fold change /veh RGS16 (11746705_a_at) / RFU VCAN (11755009_s_at) / Fold change /veh VCAN (11755009_s_at) / RFU RHOB (11743442_s_at) / Fold change /veh RHOB (11743442_s_at) / RFU RGS16 (11720943_a_at) / Fold change /veh RGS16 (11720943_a_at) / RFU RGS16 (11720944_at) / Fold change /veh RGS16 (11720944_at) / RFU, VPS4B / Fold change vs veh, VPS4B / RFU, CREB1 / Fold change vs veh, CREB1 / RFU, DNAJC13 / Fold change vs veh, DNAJC13 / RFU, GNAQ / Fold change vs veh, GNAQ / RFU, CDK5R1 / Fold change vs veh, CDK5R1 / RFU, ZRANB3 / Fold change vs veh, ZRANB3 / RFU, CUL4A / Fold change vs veh, CUL4A / RFU, CCNY / Fold change vs veh, CCNY / RFU, UFL1 / Fold change vs veh, UFL1 / RFU, COG3 / Fold change vs veh, COG3 / RFU, DIAPH2 / Fold change vs veh, DIAPH2 / RFU, SKA2 / Fold change vs veh, SKA2 / RFU, AFF3 / Fold change vs veh, AFF3 / RFU, LMF1 / Fold change vs veh, LMF1 / RFU, IPO11 / Fold change vs veh, IPO11 / RFU, DFFB / Fold change vs veh, DFFB / RFU, FOXP1 / Fold change vs veh, FOXP1 / RFU, CARD8 / Fold change vs veh, CARD8 / RFU, STRN3 / Fold change vs veh, STRN3 / RFU, ADK / Fold change vs veh, ADK / RFU, RASSF2 / Fold change vs veh, RASSF2 / RFU, WIPF1 / Fold change vs veh, WIPF1 / RFU, LARP1B / Fold change vs veh, LARP1B / RFU, RASA1 / Fold change vs veh, RASA1 / RFU, RB1 / Fold change vs veh, RB1 / RFU, PPFIA1 / Fold change vs veh, PPFIA1 / RFU, MAT2A / Fold change vs veh, MAT2A / RFU, CCT5 / Fold change vs veh, CCT5 / RFU, WDR92 / Fold change vs veh, WDR92 / RFU, CUX1 / Fold change vs veh, CUX1 / RFU, TTC7A / Fold change vs veh, TTC7A / RFU, TMEM135 / Fold change vs veh, TMEM135 / RFU, DEPTOR / Fold change vs veh, DEPTOR / RFU, CPM / Fold change vs veh, CPM / RFU, DNAJB6 / Fold change vs veh, DNAJB6 / RFU, CACNA2D3 / Fold change vs veh, CACNA2D3 / RFU, DTX4 / Fold change vs veh, DTX4 / RFU, TFCP2 / Fold change vs veh, TFCP2 / RFU, GMCL1 /// GMCL1P1 / Fold change vs veh, GMCL1 /// GMCL1P1 / RFU, AEBP2 / Fold change vs veh, AEBP2 / RFU, SNHG1 /// SNORD22 /// SNORD25 /// SNORD26 /// SNORD27 /// SNORD28 /// SNORD29 /// SNORD31 / Fold change vs veh, SNHG1 /// SNORD22 /// SNORD25 /// SNORD26 /// SNORD27 /// SNORD28 /// SNORD29 /// SNORD31 / Fold change (Aza/veh), C12orf56 (ProbeSet 11735607_a_at) / Fold change (ACY-1035/veh), C12orf56 (ProbeSet 11735607_a_at) / Fold change (Aza/veh), FGFR1OP (ProbeSet 11751329_s_at) / Fold change (ACY-1035/veh), FGFR1OP (ProbeSet 11751329_s_at) / Fold change (Aza/veh), VPS36 (ProbeSet 11739960_a_at) / Fold change (ACY-1035/veh), VPS36 (ProbeSet 11739960_a_at) / RFU SYPL1 (11715823_x_at) / Fold change /veh SYPL1 (11715823_x_at) / RFU IGFBP7 (11715501_s_at) / Fold change /veh IGFBP7 (11715501_s_at) / RFU REEP3 (11722064_at) / Fold change /veh REEP3 (11722064_at) / RFU IGLL1 (11728026_x_at) / Fold change /veh IGLL1 (11728026_x_at): dose or concentration left out as unconfirmed. The class given is cell-based, human.

The text below walks through data of article PMC5218480 (PLoS ONE, 2017).

Each structure is given as a SMILES string.

Take `Nc1ccc(-c2cccs2)cc1NC(=O)c1ccc2c(c1)cc(C1CC1)n2CCN1CCOCC1` [ACY-1035]: the “RFU, FAM179B” value is 77.88 RFU.
